Data: patent US9403798B2, “Triazinone compound and T-type calcium channel inhibitor” (NISSAN CHEMICAL INDUSTRIES, LTD., priority 2012, dated 2016)

biological target: T1, Human T-type calcium channel (Cav 3.2) (Homo sapiens, UniProt O95180); assay: Calcium Influx Inhibition Assay; assay type: cell-based; settings: Human T-type calcium channel (Cav 3.2) expressing HEK293 cells, FLIPR Calcium 4 fluorescence
T1 construct: Edward Perez-Reyes, University of Virginia, USA; host or cells: HEK293
Experimental: 1. Calcium Influx Inhibition Assay
Human T-type calcium channel (Cav 3.2) expressing HEK293 cells were obtained from Prof. Edward Perez-Reyes, University of Virginia, USA. The calcium-sensitive fluorescent dye used was FLIPR Calcium 4 Assay Kit (Molecular Devices). To a black 96-well plate with a clear bottom coated with type I collagen, the human T-type calcium channel (Cav 3.2) expressing HEK293 cells were seeded and cultured overnight, and the culture medium was removed. A solution of the calcium-sensitive fluorescent dye was added, and the plate was incubated at 37° C. in an atmosphere of 5% carbon dioxide for 30 minutes. To the plate, a diluted solution of a compound was added, and the whole was further incubated at 37° C. in an atmosphere of 5% carbon dioxide for 30 minutes. While fluorescence was continuously analyzed from the bottom with a FlexStation 3 (Molecular Devices), a calcium solution was added. […] From the rise in the fluorescence from the base line, the inhibition percentage was calculated. The logarithms of compound concentrations were plotted with respect to the inhibition activities to give an IC50 value.

T1 sequence (O95180 whole entry): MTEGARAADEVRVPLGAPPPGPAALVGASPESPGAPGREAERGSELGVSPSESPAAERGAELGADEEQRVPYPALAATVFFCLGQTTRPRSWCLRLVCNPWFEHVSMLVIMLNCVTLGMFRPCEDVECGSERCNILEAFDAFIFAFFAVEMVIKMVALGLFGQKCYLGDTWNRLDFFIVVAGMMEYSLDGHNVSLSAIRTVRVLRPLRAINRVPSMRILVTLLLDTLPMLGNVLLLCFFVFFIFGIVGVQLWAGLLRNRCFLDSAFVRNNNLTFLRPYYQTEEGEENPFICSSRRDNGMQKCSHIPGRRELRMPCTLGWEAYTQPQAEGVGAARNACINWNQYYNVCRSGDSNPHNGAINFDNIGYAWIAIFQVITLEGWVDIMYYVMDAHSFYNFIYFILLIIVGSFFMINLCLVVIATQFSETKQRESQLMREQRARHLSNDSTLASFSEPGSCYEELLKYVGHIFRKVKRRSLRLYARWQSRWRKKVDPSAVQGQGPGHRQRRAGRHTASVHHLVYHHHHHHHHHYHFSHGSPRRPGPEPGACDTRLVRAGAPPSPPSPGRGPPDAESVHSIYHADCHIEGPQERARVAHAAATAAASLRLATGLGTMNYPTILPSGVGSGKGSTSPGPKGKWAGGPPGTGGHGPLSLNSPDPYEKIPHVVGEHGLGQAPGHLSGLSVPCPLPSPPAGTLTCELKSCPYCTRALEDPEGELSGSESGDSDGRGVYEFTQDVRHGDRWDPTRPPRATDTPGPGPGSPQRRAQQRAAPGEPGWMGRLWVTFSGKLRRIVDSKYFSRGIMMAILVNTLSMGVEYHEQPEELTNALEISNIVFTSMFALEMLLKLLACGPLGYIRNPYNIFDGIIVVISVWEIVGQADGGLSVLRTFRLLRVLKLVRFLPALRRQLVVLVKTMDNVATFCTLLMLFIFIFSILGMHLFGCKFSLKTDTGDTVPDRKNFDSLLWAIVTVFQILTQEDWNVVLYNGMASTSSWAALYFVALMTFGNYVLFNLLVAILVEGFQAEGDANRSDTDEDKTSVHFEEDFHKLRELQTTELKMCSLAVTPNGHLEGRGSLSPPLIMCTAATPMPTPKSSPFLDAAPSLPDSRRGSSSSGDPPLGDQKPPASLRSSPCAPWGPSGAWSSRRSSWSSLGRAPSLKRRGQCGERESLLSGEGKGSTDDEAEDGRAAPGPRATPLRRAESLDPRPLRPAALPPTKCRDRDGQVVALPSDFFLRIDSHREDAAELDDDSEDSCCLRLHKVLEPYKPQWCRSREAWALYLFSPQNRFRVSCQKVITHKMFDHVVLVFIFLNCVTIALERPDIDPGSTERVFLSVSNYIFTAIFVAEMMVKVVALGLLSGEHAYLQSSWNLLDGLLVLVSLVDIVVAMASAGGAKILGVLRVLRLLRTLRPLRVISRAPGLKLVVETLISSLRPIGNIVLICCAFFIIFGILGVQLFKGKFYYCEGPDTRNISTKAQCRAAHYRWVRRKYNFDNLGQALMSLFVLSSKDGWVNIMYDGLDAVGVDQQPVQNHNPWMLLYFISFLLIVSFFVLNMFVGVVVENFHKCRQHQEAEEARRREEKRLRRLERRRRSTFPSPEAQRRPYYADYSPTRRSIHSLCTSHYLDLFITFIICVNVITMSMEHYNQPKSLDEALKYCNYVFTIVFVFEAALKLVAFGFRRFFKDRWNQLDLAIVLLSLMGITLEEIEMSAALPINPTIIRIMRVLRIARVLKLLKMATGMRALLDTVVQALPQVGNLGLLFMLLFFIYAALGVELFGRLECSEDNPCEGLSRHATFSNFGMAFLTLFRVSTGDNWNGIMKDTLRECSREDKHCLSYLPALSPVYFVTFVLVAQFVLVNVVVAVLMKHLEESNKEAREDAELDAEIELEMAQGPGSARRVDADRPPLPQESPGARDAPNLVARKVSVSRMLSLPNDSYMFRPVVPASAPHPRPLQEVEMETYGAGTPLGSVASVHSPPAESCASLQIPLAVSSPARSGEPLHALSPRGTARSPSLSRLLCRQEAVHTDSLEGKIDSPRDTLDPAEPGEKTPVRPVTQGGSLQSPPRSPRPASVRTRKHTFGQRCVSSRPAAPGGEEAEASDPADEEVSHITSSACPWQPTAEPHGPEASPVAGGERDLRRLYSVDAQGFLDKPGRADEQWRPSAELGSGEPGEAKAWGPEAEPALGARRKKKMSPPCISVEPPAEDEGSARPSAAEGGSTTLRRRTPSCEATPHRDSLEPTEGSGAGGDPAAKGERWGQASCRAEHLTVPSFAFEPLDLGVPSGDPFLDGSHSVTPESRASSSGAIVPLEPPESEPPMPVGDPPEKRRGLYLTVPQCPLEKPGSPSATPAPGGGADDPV

Row | SMILES | IC50 [nM]
1 | O=c1nc(NC2CCC3(c4ccc(F)cc4)CC23)ncn1Cc1ccc(Cl)cc1 (stereo not drawn) [compound 127] | 30
2 | CC1CC(F)(c2ccc(F)cc2)CCN1c1ncn(Cc2ccc(Cl)cc2)c(=O)n1 (stereo not drawn) [compound 134] | 320
3 | CC(C)(C)OC(=O)N1C[C@@H](CNc2ncn(Cc3ccc(C(F)(F)F)s3)c(=O)n2)[C@H](c2ccc(F)cc2)C1 [compound 312] | 550
4 | O=c1nc(NC[C@H]2CCCN2c2ccc(F)cc2)ncn1Cc1ccc(Cl)cc1 [compound 129] | 60
5 | O=c1nc(NC2CCC(c3ccc(F)cc3)C2)ncn1Cc1ccc(Cl)cc1 (stereo not drawn) [compound 85] | 57
6 | O=c1nc(N2CCN(c3ccc(SC(F)(F)F)cc3)CC2)ncn1Cn1ccc(C(F)(F)F)n1 [compound 43] | 440
7 | Cc1nc(N2CCN(C34CC5CC(CC(C5)C3)C4)CC2)nc(=O)n1Cc1ccc(C(F)(F)F)s1 [compound 382] | 860
8 | Cc1cc(C2=CCN(c3ncn(Cc4ccc(C(F)(F)F)s4)c(=O)n3)C[C@@H]2O)cs1 [compound 333] | 1.8
9 | CC(=O)OCc1nc(N2CC=C(c3ccc(F)cc3)[C@@H](O)C2)nc(=O)n1Cc1ccc(C(F)(F)F)s1 [compound 457] | 13
10 | Cc1nc(N2CCN(c3nc(C)n(Cc4ccc(C(F)(F)F)s4)c(=O)n3)CC2)ccc1F [compound 365] | 13
11 | O=c1nc(N[C@H]2C[C@@H](c3ccc(F)cc3)C2)ncn1Cc1ccc(C(F)(F)F)s1 [compound 318] | 33
12 | O=c1nc(N2CCN(c3ccc(F)cc3)CC2)ncn1Cc1ccc(C(F)(F)F)o1 [compound 21] | 61
